This note sets out measurements from patent US8920851B2, “Treatment of neurodegenerative diseases” (Velacor Therapeutics Pty Ltd, priority 2006, dated 2014).

Molecules are shown by their SMILES. “Also recorded” adds a separate entry of the source.

One experiment has as its system human TAU441. Particulars: TMHT mice. As to the method:
This was done every Monday, Wednesday and Friday, and the water was weighed on exchange to measure consumption.
After blood sampling transgenic mice were intracardially perfused with 0.9% sodium chloride. Brains were rapidly removed, and the right half was immersion fixed for 24 hours in freshly prepared 4% Paraformaldehyde and embedded in paraffin for histological investigations. The left hemisphere was frozen on dry ice and stored at −80° C. for possible later biochemical analysis.
In initially nine (9) brain hemispheres (≧3 per Tg animal group) histological evaluations were performed to qualitative and quantitative evaluate TAU pathology.
Fifteen (15) coronal consecutive sections (Leica SM 2000R) were cut (5 μm thick) at each of 5 different brain layers between Bregma −1.82 and −1.34 mm, which were chosen according to the morphology atlas “The Mouse Brain” from Paxinos and Franklin (2 ^d edition), for Gallyas staining and for determination TAU pathology with specific antibodies (AT180 and HT7). Tissues of all transgenic animals investigated were handled in exactly the same way to avoid bias due to variation of this procedure. Remaining brain hemispheres or tissue not used are saved and stored until the sponsor has decided to how to proceed or until end of the study.
TAU depositions were determined using the monoclonal TAU-antibodies AT180 and HT7 (Pierce Endogen®).
Five (5) μm thick coronal paraffin sections from each of the five different layers were stained with the above described monoclonal mouse anti-human TAU-antibodies (AT180—1:100; HT7—1:1000) and visualized using a secondary anti-mouse Cy3 (1:500, Jackson Laboratories®). The detailed staining protocols are set out below:
AT180 incubation protocol for the determination of human PHF-TAU depositions • 1.) Deparaffinize and hydrate tissue sections through Tissue Clear (Sakura®) and graded alcohol (Merck®) series. • 2.) Wash for 2 minutes in Aqua bidest (Fresenius-Kabi®) • 3.) Place tissue sections for antigen unmasking in 10% citrate buffer (Labvision®) for 15 minutes at 95° C. in a steamer and to cool down for 15 minutes at room temperature. • 4.) Wash sections for 2×5 minutes in PBS. • 5.) Block endogenous peroxidase with 1% hydrogen peroxide (Linaris®) in methanol (Merck®) for 10 minutes at room temperature. • 6.) Wash sections for 2×5 minutes in PBS. • 7.) Block unspecific bindings with MOM-Blocking Reagent (Vector®) for 60 minutes at room temperature in a damp chamber. • 8.) Wash sections for 2×5 minutes in PBS. • 9.) Block unspecific bindings with MOM-Diluent (Vector®) for 5 minutes at room temperature. • 10.) Incubate with AT180 (Pierce Endogen®; 1:100 in MOM-Diluent) for 60 minutes at room temperature in a damp chamber. • 11.) Wash sections for 3×5 minutes in PBS. • 12.) Block unspecific bindings with 10% Non-Immune Goat-Normal Serum (Dako®) for 10 minutes at room temperature in a damp chamber. • 13.) Wash sections for 2×5 minutes in PBS. • 14.) Incubate with Cy 3 Goat Anti-Mouse (Jackson®; 1:500 in MOM-Diluent) for 60 minutes at room temperature in a damp chamber. • 15.) Wash sections for 5 minutes in PBS. • 16.) Wash sections for 5 minutes in Aqua bidest. • 17.) Cover sections with Moviol and coverslips.

The target of the next experiment is T1, PP2A (Homo sapiens, UniProt P67775).
T1 construct: the phosphatase activity of the general pool of intracellular PP2A; endogenous in cells; host or cells: PC3 prostate carcinoma cells
T1 sequence (P67775 whole entry): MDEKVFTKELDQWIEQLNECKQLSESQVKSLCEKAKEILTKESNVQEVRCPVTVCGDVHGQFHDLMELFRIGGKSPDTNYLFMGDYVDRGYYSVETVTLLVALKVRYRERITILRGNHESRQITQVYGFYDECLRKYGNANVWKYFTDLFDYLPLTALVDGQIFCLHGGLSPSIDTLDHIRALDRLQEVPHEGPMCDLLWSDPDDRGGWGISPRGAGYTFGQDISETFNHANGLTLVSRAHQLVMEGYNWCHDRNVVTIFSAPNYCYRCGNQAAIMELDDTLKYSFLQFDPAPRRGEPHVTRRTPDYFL
T1 sequence (P30153 2-589 partner limits assumed): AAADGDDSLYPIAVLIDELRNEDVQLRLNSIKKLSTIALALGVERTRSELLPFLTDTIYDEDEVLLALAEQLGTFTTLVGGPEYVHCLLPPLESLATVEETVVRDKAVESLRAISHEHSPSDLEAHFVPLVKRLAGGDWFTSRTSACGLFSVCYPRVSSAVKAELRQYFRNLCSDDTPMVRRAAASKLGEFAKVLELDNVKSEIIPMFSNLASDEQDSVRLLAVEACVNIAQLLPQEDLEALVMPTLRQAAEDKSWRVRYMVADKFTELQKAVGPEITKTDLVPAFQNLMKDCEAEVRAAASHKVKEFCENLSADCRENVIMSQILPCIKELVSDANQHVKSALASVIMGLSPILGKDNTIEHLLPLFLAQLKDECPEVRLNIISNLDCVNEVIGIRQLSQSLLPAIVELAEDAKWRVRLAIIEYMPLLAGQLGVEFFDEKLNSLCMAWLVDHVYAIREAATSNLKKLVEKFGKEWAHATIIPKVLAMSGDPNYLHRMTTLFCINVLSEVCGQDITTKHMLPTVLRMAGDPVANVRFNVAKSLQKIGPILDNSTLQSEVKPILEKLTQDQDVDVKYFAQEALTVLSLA
In words: PP2A immunoprecipitation from treated PC3 cells and phosphatase assay. Particulars: PC3 cells treated 1 hour; sodium selenate 500 μM, endothall A 100 μM. It counts as cell-based.

The next experiment has as its system GSK-3β. In words: GSK-3β Ser9 phosphorylation by immunoblot in PC3 cells. The experiment is classed as cell-based, human. The source says:
The metabolic effects of insulin on glycogen synthesis are mediated by glycogen synthase kinase-3 (GSK-3), a direct downstream substrate of Akt. GSK-3 is a ubiquitously expressed serine/threonine kinase that phosphorylates and inactivates glycogen synthase. In response to activation of the insulin receptor, Akt phosphorylates and inactivates the repressor GSK-3, thereby stimulating glycogen synthesis [Cross et al., 1995]. […] Resolved whole cell lysates were subjected to immunoblot analysis with an antibody that specifically recognizes GSK-3β only when phosphorylated at Ser9, a site critical for its kinase activity, and comparison made with the cytoskeletal protein β-tubulin as a loading control.
On the technique in general: In western blotting, separated proteins are transferred to a membrane and probed.

In experiment [1] the target is T2, purified human PP2A A-C dimer (Homo sapiens, UniProt P67775).
T2 construct: purified PP2A A-C dimer purified from human red blood cells; purchased Upstate 14-111 (lot #28002); host or cells: human red blood cells (native purification)
T2 sequence (P67775 whole entry): as the sequence (P67775 whole entry) above
T2 sequence (P30153 2-589 partner limits assumed): as the sequence (P30153 2-589 partner limits assumed) above
Nature of the experiment: Free sulfhydryl groups in purified PP2A (Ellman's assay). It counts as biochemical. Particulars: 15 min at 37° C. The source says: Inactivating reversible oxidation of protein phosphatases involves the modification of a critical cysteine residue within the catalytic domain, ultimately leading to the formation of either intramolecular disulphide or sulphenyl-amide bonds. […] Ellman's reagent (5,5′-Dithio-bis(2-nitrobenzoic acid), DTNB) rapidly forms a disulphide bond with free sulfhydryl groups with the release of chromogenic thiolate ions. […] The quantity of free sulfhydryl groups present within the phosphatase was then determined by the addition of Ellman's reagent and subsequent measurement of absorbance at 412 nm (FIG. 5C).
The change in free sulfhydryl groups in purified PP2A following various treatments was determined using Ellman's Reagent. To 0.01 U of PP2A was added to 37.5 μl of dilution buffer (30 mM Tris-HCl, 3 mM EDTA, pH 8.2), 12.5 μl DTNB reagent (Ellman's reagent) and 200 μl of methanol. Samples were incubated for 5 min at RT, and then extinction measured in duplicate for each at 412 nm.
In general terms: DTNB colorimetry detects thiols as they appear.

The subject of another experiment is p70S6K. It counts as cell-based, human. As to conditions: PC3 cells; LY294002 50 μM 1 hour, sodium selenate 500 μM 1 hour, okadaic acid 500 nM. The procedure: 5×10^5 PC3 prostate carcinoma cells were plated per well of a 6-well plate, allowed to attach for 8 hours, then serum starved overnight. […] Equal amounts of whole cell lysates (75 μg) were resolved by SDS-PAGE, and the level of p70S6K phosphorylation determined by immunoblot analysis with an antibody that specifically recognizes the p70S6K protein when phosphorylated on Thr389. Comparison is made with the protein loading control β tubulin.

Consider `O=[Se](=O)(O)O` [sodium selenate], for which the “percentage of relative TAU area in the Amygdala (AT180), versus untreated baseline” value with human TAU441 is “not versus untreated baseline group”. Moreover, the “percentage of relative HT7-TAU area in the hippocampus” value in the experiment with human TAU441 (1.2 mg, versus vehicle (ANOVA p<0.05, T-Test p=0.04) and untreated baseline (ANOVA p<0.05)) is reported as “significantly reduced”. For the same compound, the “percentage of relative AT180-TAU area in the hippocampus” value in the experiment on human TAU441 (1.2 mg, versus vehicle (T-Test p=0.04)) was “reduced”. Further, the “percentage of relative TAU area in the Amygdala (AT180), versus vehicle” value with human TAU441 (ANOVA p<0.05, T-Test p=0.0045) is recorded as “significantly reduced percentage of relative HT7-TAU area”. In addition, the “TAU load and TAU positive cells in the amygdala and neuronal layer of the hippocampal CA1 region” value in the experiment on human TAU441 (AT180 and HT7 immunoreactivity) is listed as “visibly reduced TAU load as well as TAU positive cells”. The “percentage of relative HT7-TAU area in the Amygdala” value in the experiment with human TAU441 (versus untreated baseline (ANOVA p<0.01) and vehicle (ANOVA p<0.05, T-test p=0.0018)) is reported as “significantly reduced percentage of relative HT7-TAU area”. Also, the “phosphatase activity of immunoprecipitated PP2A (general intracellular pool)” value on PP2A is reported as “had no effect”. Moreover, in the experiment on GSK-3β (500 μM, 0 to 6 h), the “GSK-3β phosphorylation at Ser9, time course” value was “marked reduction in phosphorylation, which was maximal at 1 h and 3 h, and returned towards basal levels at the 6 h timepoint”. The “reduction of GSK-3β phosphorylation levels” value with GSK-3β (densitometry, sodium selenate 500 μM 3 h, LY294002 50 μM 1 h) is given as “over 20%”. Moreover, in experiment [1] (0.01 U PP2A, 10 mM of each agent), the “number of free sulfhydryl groups in PP2A” value is recorded as “has no effect”. Besides, in experiment [1] (sodium selenate 10 mM and hydrogen peroxide 10 mM), the “hydrogen peroxide mediated modification of PP2A sulfhydryl groups in the presence of sodium selenate” value is on record as “did not protect PP2A from hydrogen peroxide mediated modification of sulfhydryl groups; also recorded: significantly more efficient in the presence of sodium selenate”. For the same compound, in the experiment with p70S6K, the “p70S6K phosphorylation on Thr389” value is “unaffected”.
